From patent US10695341B2, “Compositions and methods for treating endometriosis” (UNIVERSITY OF SOUTH FLORIDA, priority 2014, dated 2020)

How the values were obtained:
[1] = test system: Life-extended endometriotic (IE) cells; test: Crystal violet growth/survival of life-extended endometriotic (IE) cells treated with chloroquine; type: cell-based, human; conditions: 25 μM chloroquine, up to about 96 hours, crystal violet absorbance
Method: Life-extended endometriotic (IE) cells were treated with 25 μM chloroquine for up to about 96 hours. Cells were then stained with crystal violet and measured for overall growth at an absorbance of […], using a Bioteck plate reader.

[2] = test system: LC3-II; test: LC3-II levels in IE cells after chloroquine; type: cell-based, human; conditions: chloroquine treatment

## CCN(CC)CCCC(C)Nc1ccnc2cc(Cl)ccc12 (centres unmarked) [chloroquine]
[1]
  cellular survival: dramatically inhibited
[2]
  LC3-II levels: marked increase
